The record followed here is ChEMBL document CHEMBL4477259, “Discovery and structure-activity relationships of a novel isothiazolone class of bacterial type II topoisomerase inhibitors” (Bioorg Med Chem Lett, 2016).

The subject of one data set is Acinetobacter baumannii. Briefly: Antibacterial activity against Acinetobacter baumannii NCTC 13420. Format: functional.
The next data set concerns Staphylococcus aureus. Kind of data set: Antibacterial activity against Staphylococcus aureus ATCC 29213. Format: functional.
Data set [1] concerns Escherichia coli. Briefly: Antibacterial activity against Escherichia coli N43. Format: functional.
Another data set has as its system Klebsiella pneumoniae. Briefly: Antibacterial activity against Klebsiella pneumoniae ATCC 700603. Format: functional.
The next data set has as its system Pseudomonas aeruginosa. Briefly: Antibacterial activity against Pseudomonas aeruginosa ATCC 27853. Format: functional.
In data set [2] the test system is Escherichia coli. Kind of data set: Antibacterial activity against Escherichia coli W4573. Format: functional.
Data set [3] deals with Escherichia coli. Kind of data set: Antibacterial activity against Escherichia coli LM625 harboring GyrA S83L/D87N double mutant. Format: functional.
Data set [4] deals with Escherichia coli. Kind of data set: Antibacterial activity against wild type Escherichia coli LM179. Format: functional.
The subject of data set [5] is Escherichia coli. Briefly: Selectivity ratio of MIC for Escherichia coli LM625 harboring GyrA S83L/D87N double mutant to MIC for wild type Escherichia coli LM179. Format: functional.
Data set [6] concerns Escherichia coli. Briefly: Selectivity ratio of MIC for Escherichia coli LM693 harboring GyrA S83L/D87N double mutant/ParC S80I mutant to MIC for wild type Escherichia coli LM179. Format: functional.
The test system of data set [7] is Escherichia coli. Briefly: Antibacterial activity against Escherichia coli CH460 harboring GyrA S83L/D87N double mutant/ParC S80I E84V double mutant/qepA. Format: functional.
The test system of data set [8] is Escherichia coli. Briefly: Selectivity ratio of MIC for Escherichia coli LM705 harboring GyrA S83L/D87N double mutant/ParC S80I mutant/delta marR/delta acrR double mutant to MIC for wild type Escherichia coli LM179. Format: functional.
For data set [9], the system named is Escherichia coli. Briefly: Antibacterial activity against Escherichia coli LM705 harboring GyrA S83L/D87N double mutant/ParC S80I mutant/delta marR/delta acrR double mutant. Format: functional.
Data set [10] concerns Escherichia coli. Kind of data set: Selectivity ratio of MIC for Escherichia coli LM367 harboring delta marR/delta acrR double mutant to MIC for wild type Escherichia coli LM179. Format: functional.
The subject of data set [11] is Escherichia coli. Briefly: Antibacterial activity against Escherichia coli LM367 harboring delta marR/delta acrR double mutant. Format: functional.
Data set [12] concerns Escherichia coli. Briefly: Selectivity ratio of MIC for Escherichia coli CH440 harboring GyrA S83L/D87N double mutant/ParC S80I E84V double mutant/aac(6')-lb-cr to MIC for wild type Escherichia coli LM179. Format: functional.
For data set [13], the system named is Escherichia coli. Briefly: Antibacterial activity against Escherichia coli LM693 harboring GyrA S83L/D87N double mutant/ParC S80I mutant. Format: functional.
Data set [14] deals with Escherichia coli. Kind of data set: Selectivity ratio of MIC for Escherichia coli CH460 harboring GyrA S83L/D87N double mutant/ParC S80I E84V double mutant/qepA to MIC for wild type Escherichia coli LM179. Format: functional.
The subject of data set [15] is Escherichia coli. Briefly: Selectivity ratio of MIC for Escherichia coli CH418 harboring GyrA S83L/D87N double mutant/ParC S80I E84G double mutant/qnrA to MIC for wild type Escherichia coli LM179. Format: functional.
Data set [16] has as its system Escherichia coli. Kind of data set: Antibacterial activity against Escherichia coli CH448 harboring GyrA S83L mutant/qnrS. Format: functional.
Data set [17] relates to Escherichia coli. Kind of data set: Antibacterial activity against Escherichia coli CH418 harboring GyrA S83L/D87N double mutant/ParC S80I E84G double mutant/qnrA. Format: functional.
The subject of data set [18] is Escherichia coli. Briefly: Antibacterial activity against Escherichia coli CH440 harboring GyrA S83L/D87N double mutant/ParC S80I E84V double mutant/aac(6')-lb-cr. Format: functional.
Data set [19] deals with Escherichia coli. Briefly: Selectivity ratio of MIC for Escherichia coli CH448 harboring GyrA S83L mutant/qnrS to MIC for wild type Escherichia coli LM179. Format: functional.
The subject of another data set is HepG2. Kind of data set: Cytotoxicity against human HepG2 cells after 24 hrs by cell titre-glo assay. Format: cell-based. Conditions: HepG2, 24 h.
The target of a further data set is hERG (KCNH2) (Homo sapiens, UniProt Q12809). Briefly: Inhibition of human ERG channel at 100 uM by automated patch clamp assay.
hERG (KCNH2), sequence (Q12809 whole entry): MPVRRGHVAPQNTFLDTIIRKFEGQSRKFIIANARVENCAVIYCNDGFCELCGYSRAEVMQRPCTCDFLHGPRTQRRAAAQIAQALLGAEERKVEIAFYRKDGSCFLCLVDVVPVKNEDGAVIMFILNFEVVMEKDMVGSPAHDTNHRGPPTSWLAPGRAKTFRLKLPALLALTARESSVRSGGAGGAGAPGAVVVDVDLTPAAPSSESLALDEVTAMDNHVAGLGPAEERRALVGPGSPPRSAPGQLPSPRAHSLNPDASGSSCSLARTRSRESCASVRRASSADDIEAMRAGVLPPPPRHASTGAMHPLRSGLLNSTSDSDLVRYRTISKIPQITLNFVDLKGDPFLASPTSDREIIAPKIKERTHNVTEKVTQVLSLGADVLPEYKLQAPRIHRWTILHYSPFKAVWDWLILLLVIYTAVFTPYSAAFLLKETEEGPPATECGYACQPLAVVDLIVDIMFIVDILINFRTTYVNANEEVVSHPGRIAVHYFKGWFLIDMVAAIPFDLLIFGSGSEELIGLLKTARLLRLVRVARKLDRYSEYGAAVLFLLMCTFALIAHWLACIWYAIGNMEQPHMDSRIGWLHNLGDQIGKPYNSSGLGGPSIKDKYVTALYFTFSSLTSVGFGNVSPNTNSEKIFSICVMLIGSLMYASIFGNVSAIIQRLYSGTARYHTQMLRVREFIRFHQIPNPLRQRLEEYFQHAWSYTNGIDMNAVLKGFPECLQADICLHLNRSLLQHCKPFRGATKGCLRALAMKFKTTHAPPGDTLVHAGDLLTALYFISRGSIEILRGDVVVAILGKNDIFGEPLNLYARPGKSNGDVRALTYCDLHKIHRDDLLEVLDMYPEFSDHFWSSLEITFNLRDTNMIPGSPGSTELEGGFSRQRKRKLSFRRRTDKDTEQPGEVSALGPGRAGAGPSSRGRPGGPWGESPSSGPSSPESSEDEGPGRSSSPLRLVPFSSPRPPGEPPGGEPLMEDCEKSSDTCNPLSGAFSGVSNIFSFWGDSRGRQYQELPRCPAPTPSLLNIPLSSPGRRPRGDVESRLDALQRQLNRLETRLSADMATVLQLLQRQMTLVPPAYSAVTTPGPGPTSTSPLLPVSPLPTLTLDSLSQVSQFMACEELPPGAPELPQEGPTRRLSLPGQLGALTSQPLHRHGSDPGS
A short description of data set [20]: n-octanol/phosphate buffer partition coefficient, log D of compound at pH 7.4 by shake-flask assay. Format: physicochemical.
Data set [21] addresses Voltage-gated inwardly rectifying potassium channel KCNH2 (Homo sapiens, UniProt Q12809). Briefly: Inhibition of human ERG channel by automated patch clamp assay.

In brackets after ≈: the same amount, converted by molar mass. Bounds are passed on as bounds.

Voltage-gated inwardly rectifying potassium channel KCNH2, sequence (Q12809 whole entry): as above

For `CCc1c(-c2cccc(N3CCC(N(C)C)C3)c2)[nH]c(=O)c2c(=O)[nH]sc12` (stereo unspecified), the minimum inhibitory concentration (MIC) (as a rule, the lowest concentration that inhibits growth of the organism) in the data set with Acinetobacter baumannii is 64 µg/mL (≈ 166 µM); in the data set with Staphylococcus aureus, 32 µg/mL (≈ 83.2 µM); against Escherichia coli [1] it was 8 µg/mL (≈ 20.8 µM); against Klebsiella pneumoniae it was more than 128 µg/mL; with Pseudomonas aeruginosa it was more than 128 µg/mL; against Escherichia coli [2] it was more than 64 µg/mL.
As to `CCc1c(-c2ccc3c(cnn3C)c2)[nH]c(=O)c2c(=O)[nH]sc12`, the minimum inhibitory concentration (MIC) is 8 µg/mL (≈ 24.5 µM) against Escherichia coli [3]; 0.5 µg/mL (≈ 1.53 µM) against Escherichia coli [4]; 2 µg/mL (≈ 6.13 µM) with Acinetobacter baumannii; 16 µg/mL (≈ 49 µM) against Escherichia coli [7]; 0.12 µg/mL (≈ 0.368 µM) in the data set with Staphylococcus aureus; more than 64 µg/mL with Escherichia coli [9]. Besides, the minimal inhibitory concentration (MIC) in the data set on Escherichia coli [1] worked out at 0.004 µg/mL (≈ 0.0123 µM); in the data set on Klebsiella pneumoniae, 16 µg/mL (≈ 49 µM); in the data set on Pseudomonas aeruginosa, 4 µg/mL (≈ 12.3 µM); in the data set on Escherichia coli [11], 4 µg/mL (≈ 12.3 µM); in the data set on Escherichia coli [13] it was 16 µg/mL (≈ 49 µM); in the data set with Escherichia coli [16], 16 µg/mL (≈ 49 µM). Further, the minimal inhibitory concentration (MIC) is 16 µg/mL (≈ 49 µM) in the data set with Escherichia coli [17], 16 µg/mL (≈ 49 µM) in the data set on Escherichia coli [18] and 0.5 µg/mL (≈ 1.53 µM) against Escherichia coli [2]. Moreover, the Selectivity ratio is given as 16 with Escherichia coli [5]; 32 with Escherichia coli [6]; more than 128 with Escherichia coli [8]; 8 in the data set with Escherichia coli [10]; 32 in the data set with Escherichia coli [12]; 32 with Escherichia coli [14]. In addition, the Selectivity ratio with Escherichia coli [15] and with Escherichia coli [19] was 32 in each case.
For the compound `CCc1c(-c2ccc(N3CCC(NC)C3)cc2)[nH]c(=O)c2c(=O)[nH]sc12` (stereo unspecified), the minimum inhibitory concentration (MIC) against Acinetobacter baumannii was 16 µg/mL (≈ 43.2 µM); in the data set on Staphylococcus aureus, 0.12 µg/mL (≈ 0.324 µM); in the data set on Escherichia coli [1] it was 0.001 µg/mL (≈ 0.0027 µM); with Klebsiella pneumoniae, 2 µg/mL (≈ 5.4 µM); with Pseudomonas aeruginosa, 0.06 µg/mL (≈ 0.162 µM); against Escherichia coli [2] it was 0.008 µg/mL (≈ 0.0216 µM). For the same compound, the IC50 (as a rule, the midpoint of a concentration-inhibition curve) in the data set with HepG2 was more than 128 µg/mL. For the same compound, testing at 100 µM against hERG (KCNH2) gave an inhibition of 34%. For the same compound, the logD (in general, lipophilicity at a set pH, counting ionised and neutral species) in data set [20] is 1.2.
For `CCc1c(-c2cccc(N3CCC(CNC)C3)c2)[nH]c(=O)c2c(=O)[nH]sc12` (stereo unspecified), the MIC in the data set on Acinetobacter baumannii is more than 64 µg/mL; against Staphylococcus aureus, 64 µg/mL (≈ 166 µM); against Escherichia coli [1] it was 8 µg/mL (≈ 20.8 µM); in the data set on Klebsiella pneumoniae, more than 64 µg/mL; in the data set with Pseudomonas aeruginosa, more than 64 µg/mL; against Escherichia coli [2], more than 64 µg/mL.
Turning to `CCc1c(-c2ccc(N3C[C@@H]4CCCN(C)[C@@H]4C3)cc2)[nH]c(=O)c2c(=O)[nH]sc12`, the minimal inhibitory concentration (MIC) against Escherichia coli [3] is 16 µg/mL (≈ 39 µM); with Escherichia coli [4], 4 µg/mL (≈ 9.74 µM); in the data set on Acinetobacter baumannii, 64 µg/mL (≈ 156 µM); with Escherichia coli [7], 64 µg/mL (≈ 156 µM); with Staphylococcus aureus, 4 µg/mL (≈ 9.74 µM); against Escherichia coli [9], more than 64 µg/mL. For the same compound, the minimum inhibitory concentration (MIC) against Escherichia coli [1] was 1 µg/mL (≈ 2.44 µM); against Klebsiella pneumoniae, 64 µg/mL (≈ 156 µM); against Pseudomonas aeruginosa it was 32 µg/mL (≈ 77.9 µM); in the data set with Escherichia coli [11], 16 µg/mL (≈ 39 µM); against Escherichia coli [13] it was more than 64 µg/mL; in the data set on Escherichia coli [16], 32 µg/mL (≈ 77.9 µM). Further, the minimum inhibitory concentration (MIC) is 64 µg/mL (≈ 156 µM) against Escherichia coli [17], more than 64 µg/mL with Escherichia coli [18] and 4 µg/mL (≈ 9.74 µM) in the data set on Escherichia coli [2]. Besides, the Selectivity ratio in the data set with Escherichia coli [5] is listed as 4; in the data set on Escherichia coli [6] it was more than 16; with Escherichia coli [8] it was more than 16; in the data set on Escherichia coli [10], 4; in the data set on Escherichia coli [12] it was more than 16; in the data set with Escherichia coli [14], 16. The Selectivity ratio in the data set on Escherichia coli [15] is 16; with Escherichia coli [19] it was 8.
As to `CCc1c(-c2ccc(N3CC[C@H](O)C3)cc2)[nH]c(=O)c2c(=O)[nH]sc12`, the minimum inhibitory concentration (MIC) came to 32 µg/mL (≈ 89.5 µM) in the data set with Acinetobacter baumannii; 0.12 µg/mL (≈ 0.336 µM) in the data set with Staphylococcus aureus; 0.03 µg/mL (≈ 0.0839 µM) in the data set with Escherichia coli [1]; 4 µg/mL (≈ 11.2 µM) against Klebsiella pneumoniae; 0.5 µg/mL (≈ 1.4 µM) against Pseudomonas aeruginosa; 0.25 µg/mL (≈ 0.699 µM) in the data set with Escherichia coli [2]. For the same compound, the half-inhibitory concentration (IC50) with HepG2 is more than 16 µg/mL. Also, on hERG (KCNH2), 100 µM produced 22% inhibition. In addition, in data set [20], the logD is 1.5.
As to `CCc1c(-c2ccc(N3CCC(N(C)C)C3)cc2)[nH]c(=O)c2c(=O)[nH]sc12` (racemic), the MIC was found to be 4 µg/mL (≈ 10.4 µM) against Escherichia coli [3]; 0.5 µg/mL (≈ 1.3 µM) in the data set with Escherichia coli [4]; 2 µg/mL (≈ 5.2 µM) in the data set on Acinetobacter baumannii; 16 µg/mL (≈ 41.6 µM) against Escherichia coli [7]; 1 µg/mL (≈ 2.6 µM) in the data set with Staphylococcus aureus; 64 µg/mL (≈ 166 µM) with Escherichia coli [9]. The MIC in the data set on Escherichia coli [1] came out at 0.03 µg/mL (≈ 0.078 µM); in the data set on Klebsiella pneumoniae, 4 µg/mL (≈ 10.4 µM); against Pseudomonas aeruginosa it was 1 µg/mL (≈ 2.6 µM); in the data set on Escherichia coli [11] it was 2 µg/mL (≈ 5.2 µM); against Escherichia coli [13], 8 µg/mL (≈ 20.8 µM); in the data set with Escherichia coli [16], 16 µg/mL (≈ 41.6 µM). For the same compound, the MIC in the data set with Escherichia coli [17] turned out to be 16 µg/mL (≈ 41.6 µM); against Escherichia coli [18] it was 16 µg/mL (≈ 41.6 µM); against Escherichia coli [2], 0.25 µg/mL (≈ 0.65 µM). Besides, the Selectivity ratio with Escherichia coli [5] turned out to be 8; with Escherichia coli [6], 16; with Escherichia coli [8], 128; in the data set on Escherichia coli [10], 4; with Escherichia coli [12], 32; in the data set with Escherichia coli [14], 32. Besides, the Selectivity ratio in the data set with Escherichia coli [15] and with Escherichia coli [19] was 32 in each case. The IC50 in the data set on HepG2 is more than 128 µg/mL; in data set [21], 20 µM. On hERG (KCNH2), at 100 µM the inhibition was 84%. The compound also gave a logD in data set [20] of 1.4.
In the data set with HepG2, `O=C(O)c1cn(C2CC2)c2cc(N3CCNCC3)c(F)cc2c1=O` [CIPROFLOXACIN] showed an IC50 of more than 128 µg/mL. In addition, the MIC in the data set on Escherichia coli [7] was more than 64 µg/mL; in the data set on Staphylococcus aureus, 0.25 µg/mL (≈ 0.754 µM); in the data set with Escherichia coli [9], 64 µg/mL (≈ 193 µM); with Klebsiella pneumoniae, 0.25 µg/mL (≈ 0.754 µM); in the data set with Pseudomonas aeruginosa, 1 µg/mL (≈ 3.02 µM); against Escherichia coli [17], 64 µg/mL (≈ 193 µM). In addition, the MIC against Escherichia coli [18] is more than 64 µg/mL.
